Results reported in patent publication US6696600B2, “L-DOPA ethyl ester salts and uses thereof” (priority 2001, dated 2004).
Read-outs that look alike come from different tables or passages of the source.

Experiments:
Format in all cases: physicochemical
[1] = Hygroscopicity test: weight gain of solid sample in humidity chamber at RH=80%; conditions: for hygroscopicity (in words): RH=80% screening; for weight gain in hygroscopicity test / appearance after exposure in a humidity chamber: RH=80%; for weight gain in hygroscopicity test: T=20±2° C.
Source text: There are many methods of quantitative evaluation of hygroscopicity of solid products without measuring the hygroscopic point. The most widely used method is based on measuring the weight gain of a solid sample in a humidity chamber. […] This method was used for screening the hygroscopicity of several LDEE salts. It also provides a comparison of the hygroscopic properties of different solids by comparison of water absorption rates under the same conditions.

[2] = pKa and delta pKa (pKa LDEE − pKa acid)
Source text: Preparation and selection of salts that have different physical properties are detailed in the literature. […]. PKa of LDEE free base is known to be 7.24 [8]. […]. This fact is illustrated in Example 1 below, in which the crystallization of LDEE palmitate was attempted. After dissolution of LDEE base and palmitic acid in absolute alcohol, the solution was cooled, and instead of forming a new salt, pure palmitic acid was crystallized out, and no solid crystalline salt was formed. […]

pH of water solution = experiment: pH of water solution

| Compound | Color stability at RH = 80% [1] | Mean water absorption rate at RH = 80% [1] | Material appearance after 24 hrs at RH = 80% [1] | Weight gain during 24 hrs at RH = 80%,% [1] | hygroscopicity (in words) [1] | weight gain in hygroscopicity test ([1]; during 24 hrs) | delta pKa pKaLDEE − pKaacid (first value) [2] | delta pKa pKaLDEE − pKaacid (first value) ([2]; first pKa of the acid) | delta pKa pKaLDEE − pKaacid (second value) ([2]; second pKa of the acid) | delta pKa pKaLDEE − pKaacid (third value) ([2]; third pKa of the acid) | weight gain in hygroscopicity test ([1]; during 8 hrs) | pH of water solution (pH of water solution) | delta pKa pKaLDEE − pKaacid (second value) [2] | water absorption at RH=80% (in words) [1] | appearance after exposure in a humidity chamber ([1]; about 48 hrs) | delta pKa pKaLDEE − pKaacid (third value) [2] | appearance after exposure in a humidity chamber ([1]; about 24 hrs) |
| --- | --- | --- | --- | --- | --- | --- | --- | --- | --- | --- | --- | --- | --- | --- | --- | --- | --- |
| CCOC(=O)[C@@H](N)Cc1ccc(O)c(O)c1.O=C(O)c1ccccc1 [Example 8, LDEE Benzoate] | 4.5 h | 0.09 mol/kg/h | Semi-solid melt | 4.1% | hygroscopic | 4.1% | 3.03 |  |  |  |  |  |  |  |  |  |  |
| LDEE Citrate [Example 12] | 20 h | 0.146 mol/kg/h | Semi-solid melt | 6.3% | hygroscopic | 6.3% |  | 4.11 | 4.28 | 0.84 |  |  |  |  |  |  |  |
| CCO.CCOC(=O)[C@@H](N)Cc1ccc(O)c(O)c1.CCOC(=O)[C@@H](N)Cc1ccc(O)c(O)c1.O=C(O)CCC(=O)O [Example 22, LDEE Succinate Ethanolate] | >24 h | 0.067 mol/kg/h | Semi-solid melt | 2.9% | hygroscopic |  | 3.08 |  |  |  | 4.3% | 6 | 1.63 |  |  |  |  |
| CCO.CCOC(=O)[C@@H](N)Cc1ccc(O)c(O)c1.O=C(O)/C=C\C(=O)O [Example 28, LDEE Maleate Ethanolate] | 3 h | 0.07 mol/kg/h | Yellowish syrup | 3.1% | hygroscopic | 3.1% | 5.35 |  |  |  |  | 6.4 | 1.02 |  |  |  |  |
| CCOC(=O)[C@@H](N)Cc1ccc(O)c(O)c1.O=C(O)[C@@H](O)c1ccccc1 [Example 15, LDEE S(+)Mandelate] | >24 h | 0.092 mol/kg/h | Semi-solid melt | 4.0% | hygroscopic | 4.02% | 3.4 |  |  |  |  |  |  |  |  |  |  |
| CCCCCCCC(=O)O.CCOC(=O)[C@@H](N)Cc1ccc(O)c(O)c1 [Example 19, LDEE Octanoate] | >48 h | 0.005 mol/kg/h | White flowable powder | 0.22% | non-hygroscopic | 0.22% | 2.35 |  |  |  |  | 6.0-6.5 |  | did not absorb water | white flowable powder |  |  |
| CCCCC(=O)O.CCOC(=O)[C@@H](N)Cc1ccc(O)c(O)c1 [Example 18, LDEE Valerate] |  |  |  |  |  |  | ˜2.4 |  |  |  |  |  |  |  |  |  |  |
| CCOC(=O)C(N)Cc1ccc(O)c(O)c1.O=C(O)C(O)c1ccccc1 (stereo not drawn) [R(−)Mandelate from chloroform, LDEE R(−)Mandelate] | >24 h |  | Semi-solid melt |  |  |  |  |  |  |  |  |  |  |  |  |  |  |
| CCO.CCOC(=O)[C@@H](N)Cc1ccc(O)c(O)c1.CCOC(=O)[C@@H](N)Cc1ccc(O)c(O)c1.O=C(O)CCCCC(=O)O [Example 21, LDEE Adipate Ethanolate] | >24 h | 0.121 mol/kg/h | Semi-solid melt | 5.25% | hygroscopic | 5.25% | 2.81 |  |  |  |  | 6 | 1.83 |  |  |  |  |
| CCOC(=O)C(N)Cc1ccc(O)c(O)c1.O=C(O)C(O)C(O)C(=O)O (mixture of isomers) [Example 7, LDEE (LD)Tartrate] | 20 h | 0.146 mol/kg/h | Syrup | 6.3% | hygroscopic | 6.3% | 4.26 |  |  |  |  |  | 2.90 |  |  |  |  |
| LDEE Ascorbate [Example 14] | 0 to 5 h | 0.162 mol/kg/h | Red semi-solid melt | 7.0% | hygroscopic | 7.04% | 3.14 |  |  |  |  |  |  |  |  |  |  |
| CCOC(=O)[C@@H](N)Cc1ccc(O)c(O)c1.O=P(O)(O)O [Example 11, LDEE Phosphate] | 15 h | 0.147 mol/kg/h | Semi-solid melt | 6.4% |  | 6.4% | 5.09 |  |  |  |  |  | 0.04 |  |  | −4.6 |  |
| LDEE Myristate [Example 27] | >48 h | 0.002 mol/kg/h | White flowable powder | 0.11% | non-hygroscopic | 0.11% | ˜2.4 |  |  |  |  |  |  | did not absorb water |  |  | white flowable powder |
| CCOC(=O)C(N)Cc1ccc(O)c(O)c1.O=C(O)C(O)c1ccccc1 (stereo not drawn) [Example 17, LDEE R(−)Mandelate] | >24 h | 0.125 mol/kg/h | Semi-solid melt | 5.4% | hygroscopic | 5.4% |  | 3.4 |  |  |  |  |  |  |  |  |  |
| CCOC(=O)[C@@H](N)Cc1ccc(O)c(O)c1.O=C(O)[C@@H](O)c1ccccc1 [Example 16, LDEE S(+)Mandelate] |  |  |  |  |  |  |  | 3.4 |  |  |  |  |  |  |  |  |  |
| LDEE Palmitate [Example 20] |  |  |  |  |  |  | 2.4 |  |  |  |  |  |  |  |  |  |  |
| CCOC(=O)[C@@H](N)Cc1ccc(O)c(O)c1.O=C(O)C(O)C(O)C(=O)O [Example 6, LDEE D(−)Tartrate] | 20 h | 0.155 mol/kg/h |  | 6.7% |  | 6.7% |  | 4.26 |  |  |  |  |  |  |  |  |  |
| LDEE Oleate [Example 26] |  |  |  |  |  |  | ˜2.4 |  |  |  |  |  |  |  |  |  |  |
| CCOC(=O)[C@@H](N)Cc1ccc(O)c(O)c1.O=C(O)C(O)C(O)C(=O)O [Example 4, LDEE L(+)Tartrate] | 15 h | 0.164 mol/kg/h | Syrup | 7.1% | hygroscopic | 7.1% | 4.26 |  |  |  |  |  | 2.90 |  |  |  |  |
| CCOC(=O)[C@@H](N)Cc1ccc(O)c(O)c1.O=C(O)CC(O)(CC(=O)O)C(=O)O [Example 13, LDEE Citrate] |  |  |  |  |  |  | 4.11 |  |  |  |  |  | 4.28 |  |  | 0.84 |  |
| CCOC(=O)[C@@H](N)Cc1ccc(O)c(O)c1.O=C(O)C(O)C(O)C(=O)O [Example 5, LDEE Hydrogen L(+)Tartrate] | 19 h | 0.23 mol/kg/h | Syrup | 10.1% | hygroscopic | 10.1% | 4.26 |  |  |  |  |  | 2.90 |  |  |  |  |
| LDEE Phenylbutyrate [Example 10] | 1.0 h | 0.023 mol/kg/h | Semi-solid melt | 1.0% | hygroscopic | 1.03% | 2.48 |  |  |  |  | 5.5-6.0 |  |  |  |  |  |
| Stearate |  |  |  |  |  |  | ˜2.4 |  |  |  |  |  |  |  |  |  |  |
